# Data: PubChem BioAssay AID2060887 (Molecular Pharmacology Branch, DTP, NCI, 2025)
# System: 782815-120-R-J1-PDC complex spheroid viability
# Experiment: Anticancer human tumor 782815-120-R-J1-PDC patient-derived colon adenocarcinoma cell line growth inhibition [RAS]
# Conditions: for IC50: curve of first compound; for viability, T/C: stronger effect = lower value
# Outline: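 Agents were tested in combination matrices in half-log decrements from a top concentration at or near clinical Cmax (10 microM if undetermined). Targets were multi-cell spheroids of tumour lines plus HUVEC and MSC stromal cells.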
# [1] = second compound 0.00316 µM, first compound 0.0316 µM
# [2] = second compound 0.00316 µM, first compound 0.1 µM
# [3] = second compound 0.00316 µM, first compound 0.316 µM
# [4] = second compound 0.00316 µM, first compound 1 µM
# [5] = second compound 0.00316 µM, first compound 3.16 µM
# [6] = second compound 0.00316 µM, first compound 10 µM
# [7] = second compound 0.01 µM, first compound 0.0316 µM
# [8] = second compound 0.01 µM, first compound 0.1 µM
# [9] = second compound 0.01 µM, first compound 0.316 µM
# [10] = second compound 0.01 µM, first compound 1 µM
# [11] = second compound 0.01 µM, first compound 3.16 µM
# [12] = second compound 0.01 µM, first compound 10 µM
# [13] = second compound 0.0316 µM, first compound 0.0316 µM
# [14] = second compound 0.0316 µM, first compound 0.1 µM
# [15] = second compound 0.0316 µM, first compound 0.316 µM
# [16] = second compound 0.0316 µM, first compound 1 µM
# [17] = second compound 0.0316 µM, first compound 3.16 µM
# [18] = second compound 0.0316 µM, first compound 10 µM
# [19] = second compound 0.1 µM, first compound 0.0316 µM
# [20] = second compound 0.1 µM, first compound 0.1 µM
# [21] = second compound 0.1 µM, first compound 0.316 µM
# [22] = second compound 0.1 µM, first compound 1 µM
# [23] = second compound 0.1 µM, first compound 3.16 µM
# [24] = second compound 0.1 µM, first compound 10 µM
# [25] = second compound 0.316 µM, first compound 0.0316 µM
# [26] = second compound 0.316 µM, first compound 0.1 µM
# [27] = second compound 0.316 µM, first compound 0.316 µM
# [28] = second compound 0.316 µM, first compound 1 µM
# [29] = second compound 0.316 µM, first compound 3.16 µM
# [30] = second compound 0.316 µM, first compound 10 µM
# [31] = second compound 1 µM, first compound 0.0316 µM
# [32] = second compound 1 µM, first compound 0.1 µM
# [33] = second compound 1 µM, first compound 0.316 µM
# [34] = second compound 1 µM, first compound 1 µM
# [35] = second compound 1 µM, first compound 3.16 µM
# [36] = second compound 1 µM, first compound 10 µM
# 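Also: spheroids exposed to compounds for 7 days before reading.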
# 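For viability, T/C in this document: 100% = DMSO vehicle control viability.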
smiles,measurement,setting,value
Cc1nc(N2CCC3(CC2)COC(C)C3N)c(CO)nc1Sc1ccnc(N)c1Cl (stereo unspecified) + C=CC(=O)N1CCN(c2nc(OCC3CCCN3C)nc3c(F)c(-c4nc(N)cc(C)c4C(F)(F)F)c(Cl)cc23)C(C)C1,IC50,second compound 0.00316 µM,> 10 µM
same,IC50,second compound 0.01 µM,> 10 µM
same,IC50,second compound 0.0316 µM,> 10 µM
same,IC50,second compound 0.1 µM,> 10 µM
same,IC50,second compound 0.316 µM,> 10 µM
same,IC50,second compound 1 µM,> 10 µM
same,"viability, T/C",[1],92.3%
same,"viability, T/C",[2],107%
same,"viability, T/C",[3],97.4%
same,"viability, T/C",[4],96%
same,"viability, T/C",[5],106%
same,"viability, T/C",[6],101%
same,"viability, T/C",[7],103%
same,"viability, T/C",[8],115%
same,"viability, T/C",[9],96.2%
same,"viability, T/C",[10],108%
same,"viability, T/C",[11],104%
same,"viability, T/C",[12],100%
same,"viability, T/C",[13],101%
same,"viability, T/C",[14],98.9%
same,"viability, T/C",[15],97.8%
same,"viability, T/C",[16],97.3%
same,"viability, T/C",[17],95.1%
same,"viability, T/C",[18],101%
same,"viability, T/C",[19],98.7%
same,"viability, T/C",[20],110%
same,"viability, T/C",[21],98.1%
same,"viability, T/C",[22],105%
same,"viability, T/C",[23],104%
same,"viability, T/C",[24],97.9%
same,"viability, T/C",[25],103%
same,"viability, T/C",[26],102%
same,"viability, T/C",[27],103%
same,"viability, T/C",[28],105%
same,"viability, T/C",[29],108%
same,"viability, T/C",[30],102%
same,"viability, T/C",[31],98.6%
same,"viability, T/C",[32],102%
same,"viability, T/C",[33],95.8%
same,"viability, T/C",[34],100%
same,"viability, T/C",[35],99.9%
same,"viability, T/C",[36],104%
NC1c2ccccc2OC12CCN(c1cnc3c(N4CCCc5ncccc54)n[nH]c3n1)CC2 (stereo unspecified) + C=CC(=O)N1CCN(c2nc(OCC3CCCN3C)nc3c(F)c(-c4nc(N)cc(C)c4C(F)(F)F)c(Cl)cc23)C(C)C1,IC50,second compound 0.00316 µM,> 10 µM
same,IC50,second compound 0.01 µM,> 10 µM
same,IC50,second compound 0.0316 µM,> 10 µM
same,IC50,second compound 0.1 µM,> 10 µM
same,IC50,second compound 0.316 µM,> 10 µM
same,IC50,second compound 1 µM,> 10 µM
same,"viability, T/C",[1],94.4%
same,"viability, T/C",[2],110%
same,"viability, T/C",[3],95.4%
same,"viability, T/C",[4],93.8%
same,"viability, T/C",[5],98.2%
same,"viability, T/C",[6],84.4%
same,"viability, T/C",[7],98.4%
same,"viability, T/C",[8],95.6%
same,"viability, T/C",[9],89%
same,"viability, T/C",[10],91.3%
same,"viability, T/C",[11],93.8%
same,"viability, T/C",[12],82.8%
same,"viability, T/C",[13],96.4%
same,"viability, T/C",[14],107%
same,"viability, T/C",[15],98.3%
same,"viability, T/C",[16],100%
same,"viability, T/C",[17],99.7%
same,"viability, T/C",[18],71.9%
same,"viability, T/C",[19],95.1%
same,"viability, T/C",[20],105%
same,"viability, T/C",[21],91.7%
same,"viability, T/C",[22],107%
same,"viability, T/C",[23],95.8%
same,"viability, T/C",[24],79.7%
same,"viability, T/C",[25],98%
same,"viability, T/C",[26],90.9%
same,"viability, T/C",[27],88.5%
same,"viability, T/C",[28],100%
same,"viability, T/C",[29],94.3%
same,"viability, T/C",[30],74.6%
same,"viability, T/C",[31],108%
same,"viability, T/C",[32],86.4%
same,"viability, T/C",[33],103%
same,"viability, T/C",[34],93.3%
same,"viability, T/C",[35],91.8%
same,"viability, T/C",[36],77.8%
Nc1ccn(C2OC(CO)C(O)C2(F)F)c(=O)n1 (stereo unspecified) + C=CC(=O)N1CCN(c2nc(OCC3CCCN3C)nc3c(F)c(-c4nc(N)cc(C)c4C(F)(F)F)c(Cl)cc23)C(C)C1,IC50,second compound 0.00316 µM,0.0627 µM
same,IC50,second compound 0.01 µM,0.0532 µM
same,IC50,second compound 0.0316 µM,0.0589 µM
same,IC50,second compound 0.1 µM,0.0536 µM
same,IC50,second compound 0.316 µM,0.0604 µM
same,IC50,second compound 1 µM,0.0614 µM
same,"viability, T/C","second compound 0.00316 µM, first compound 0.00316 µM",90.9%
same,"viability, T/C","second compound 0.00316 µM, first compound 0.01 µM",81.2%
same,"viability, T/C",[1],56.9%
same,"viability, T/C",[2],46.9%
same,"viability, T/C",[3],24.7%
same,"viability, T/C",[4],19.1%
same,"viability, T/C","second compound 0.01 µM, first compound 0.00316 µM",93.9%
same,"viability, T/C","second compound 0.01 µM, first compound 0.01 µM",82%
same,"viability, T/C",[7],57.8%
same,"viability, T/C",[8],40.7%
same,"viability, T/C",[9],23.6%
same,"viability, T/C",[10],21%
same,"viability, T/C","second compound 0.0316 µM, first compound 0.00316 µM",99%
same,"viability, T/C","second compound 0.0316 µM, first compound 0.01 µM",83.5%
same,"viability, T/C",[13],57.9%
same,"viability, T/C",[14],43.6%
same,"viability, T/C",[15],27.1%
same,"viability, T/C",[16],21.7%
same,"viability, T/C","second compound 0.1 µM, first compound 0.00316 µM",93.3%
same,"viability, T/C","second compound 0.1 µM, first compound 0.01 µM",85.7%
same,"viability, T/C",[19],54.3%
same,"viability, T/C",[20],41.3%
same,"viability, T/C",[21],31.2%
same,"viability, T/C",[22],21.5%
same,"viability, T/C","second compound 0.316 µM, first compound 0.00316 µM",92.3%
same,"viability, T/C","second compound 0.316 µM, first compound 0.01 µM",77.6%
same,"viability, T/C",[25],61.6%
same,"viability, T/C",[26],40.9%
same,"viability, T/C",[27],29.4%
same,"viability, T/C",[28],21.4%
same,"viability, T/C","second compound 1 µM, first compound 0.00316 µM",92%
same,"viability, T/C","second compound 1 µM, first compound 0.01 µM",85.8%
same,"viability, T/C",[31],58.8%
same,"viability, T/C",[32],43%
same,"viability, T/C",[33],29.2%
same,"viability, T/C",[34],23.1%
